The record followed here is patent US20200061062A1, “INHIBITORS OF HUMAN PHOSPHATIDYLINOSITOL 3-KINASE DELTA” (ICOS Corporation, priority 2000, published 2020).

Where two headings read alike, the source gives them in different places. Where only a bound is given, the exact number is not on record here.

For one series, the target named is T1, PI3Kβ (Homo sapiens, UniProt P42338).
T1 construct: His tag (pFastbac HTa vector) (N); FLAG (N); made in house; host or cells: Sf21 insect cells (baculovirus)
The series is described as follows: Biochemical assay of PI3K potency and selectivity using 20 μM ATP, Beta. The note with it: 20 μM ATP; for Beta/Delta Ratio: ratio of IC50 values, > = hypothetical ratio with 100 μM substituted for the missing IC50; for IC50: read-out: Beta IC50; for remaining activity at 100 µM: read-out: Beta: percent activity remaining at 100 μM, 100 μM compound did not inhibit by at least 50%. The procedure:
Recombinant PI3K heterodimeric complexes consisting of a p110 catalytic subunit and a p85 regulatory subunit were overexpressed using the BAC-TO-BAC® HT baculovirus expression system (GIBCO/BRL), and then purified for use in biochemical assays. The four Class I PI 3-kinases were cloned into baculovirus vectors as follows:
The 3× substrate for the HTS contained 0.6 mM Na2ATP, 0.10 mCi/mL γ-[^32P]ATP (NEN, Pittsburgh, Pa.), 6 μM PIP2/PS liposomes (Avanti Polar Lipids, Inc., […].), in 20 mM HEPES, pH 7.4.

Another series deals with PI3Kδ (Homo sapiens, UniProt O00329, S253N). Briefly: Biochemical assay of PI3K potency and selectivity using 20 μM ATP, Delta. More on the design: His tag (pFastbac HTb vector) (N); FLAG; made in house; host or cells: Sf21 insect cells (baculovirus). The note with it: 20 μM ATP; read-out: Delta IC50. From the text:
(§1) Recombinant PI3K heterodimeric complexes consisting of a p110 catalytic subunit and a p85 regulatory subunit were overexpressed using the BAC-TO-BAC® HT baculovirus expression system (GIBCO/BRL), and then purified for use in biochemical assays. The four Class I PI 3-kinases were cloned into baculovirus vectors as follows: […]

A further series has as its target T2, PI3Kα (Homo sapiens, UniProt P42336).
T2 construct: His tag (pFastbac HTb vector) (N); FLAG; made in house; host or cells: Sf21 insect cells (baculovirus)
Briefly: Biochemical assay of PI3K potency and selectivity using 20 μM ATP, Alpha. The note with it: for Alpha/Delta Ratio: ratio of IC50 values, > = hypothetical ratio with 100 μM substituted for the missing IC50; for IC50: read-out: Alpha IC50.
Text: as §1

Setting [1] is: read-out: percent activity remaining at 100 μM, 20 μM ATP, 100 μM compound did not inhibit by at least 50%.

T1 sequence (P42338 whole entry): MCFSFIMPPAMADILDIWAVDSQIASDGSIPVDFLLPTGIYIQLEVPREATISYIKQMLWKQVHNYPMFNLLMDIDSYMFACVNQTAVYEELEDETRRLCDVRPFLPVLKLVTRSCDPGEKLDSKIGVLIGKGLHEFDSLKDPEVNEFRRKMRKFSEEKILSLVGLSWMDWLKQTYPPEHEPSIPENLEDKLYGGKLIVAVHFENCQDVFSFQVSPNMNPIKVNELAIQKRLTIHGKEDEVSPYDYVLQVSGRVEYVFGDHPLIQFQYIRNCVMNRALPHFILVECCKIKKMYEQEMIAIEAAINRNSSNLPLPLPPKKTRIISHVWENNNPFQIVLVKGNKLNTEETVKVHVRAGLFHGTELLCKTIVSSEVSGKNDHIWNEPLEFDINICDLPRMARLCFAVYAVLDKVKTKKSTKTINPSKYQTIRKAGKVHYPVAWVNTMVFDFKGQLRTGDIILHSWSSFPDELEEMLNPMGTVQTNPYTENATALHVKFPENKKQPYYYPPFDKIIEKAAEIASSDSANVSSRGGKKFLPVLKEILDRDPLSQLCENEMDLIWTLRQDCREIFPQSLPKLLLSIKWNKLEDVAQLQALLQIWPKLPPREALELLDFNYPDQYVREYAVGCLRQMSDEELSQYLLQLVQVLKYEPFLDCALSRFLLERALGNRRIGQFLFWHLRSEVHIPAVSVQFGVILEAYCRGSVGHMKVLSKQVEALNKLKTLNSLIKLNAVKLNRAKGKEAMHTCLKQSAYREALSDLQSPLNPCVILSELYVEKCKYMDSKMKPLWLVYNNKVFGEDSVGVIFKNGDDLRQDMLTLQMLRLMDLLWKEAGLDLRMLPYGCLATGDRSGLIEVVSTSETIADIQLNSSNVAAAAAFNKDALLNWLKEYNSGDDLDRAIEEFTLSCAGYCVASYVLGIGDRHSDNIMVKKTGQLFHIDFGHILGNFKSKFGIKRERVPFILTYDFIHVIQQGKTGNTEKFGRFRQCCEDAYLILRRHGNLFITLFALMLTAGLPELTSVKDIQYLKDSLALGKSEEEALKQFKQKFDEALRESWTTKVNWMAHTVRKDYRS
T1 sequence (P27986 whole entry partner): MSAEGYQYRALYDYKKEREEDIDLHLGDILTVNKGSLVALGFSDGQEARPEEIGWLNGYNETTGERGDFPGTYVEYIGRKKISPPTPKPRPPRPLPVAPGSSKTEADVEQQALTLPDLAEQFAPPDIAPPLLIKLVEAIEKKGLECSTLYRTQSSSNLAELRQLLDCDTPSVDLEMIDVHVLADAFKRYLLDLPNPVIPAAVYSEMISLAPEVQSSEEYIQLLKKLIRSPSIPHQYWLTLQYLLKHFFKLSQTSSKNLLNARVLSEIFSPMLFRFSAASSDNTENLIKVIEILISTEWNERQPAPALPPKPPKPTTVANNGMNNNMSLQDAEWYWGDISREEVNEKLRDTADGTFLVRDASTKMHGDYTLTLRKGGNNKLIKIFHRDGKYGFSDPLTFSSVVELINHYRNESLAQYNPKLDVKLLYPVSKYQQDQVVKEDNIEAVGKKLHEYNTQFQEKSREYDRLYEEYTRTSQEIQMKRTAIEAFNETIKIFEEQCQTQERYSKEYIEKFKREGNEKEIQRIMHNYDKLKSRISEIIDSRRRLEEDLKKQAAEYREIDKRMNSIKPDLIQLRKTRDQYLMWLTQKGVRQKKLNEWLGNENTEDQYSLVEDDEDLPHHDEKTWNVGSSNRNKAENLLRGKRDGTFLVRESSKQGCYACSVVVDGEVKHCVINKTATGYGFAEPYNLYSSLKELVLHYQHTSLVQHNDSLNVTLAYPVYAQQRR
Sequence of PI3Kδ (O00329 whole entry S253N): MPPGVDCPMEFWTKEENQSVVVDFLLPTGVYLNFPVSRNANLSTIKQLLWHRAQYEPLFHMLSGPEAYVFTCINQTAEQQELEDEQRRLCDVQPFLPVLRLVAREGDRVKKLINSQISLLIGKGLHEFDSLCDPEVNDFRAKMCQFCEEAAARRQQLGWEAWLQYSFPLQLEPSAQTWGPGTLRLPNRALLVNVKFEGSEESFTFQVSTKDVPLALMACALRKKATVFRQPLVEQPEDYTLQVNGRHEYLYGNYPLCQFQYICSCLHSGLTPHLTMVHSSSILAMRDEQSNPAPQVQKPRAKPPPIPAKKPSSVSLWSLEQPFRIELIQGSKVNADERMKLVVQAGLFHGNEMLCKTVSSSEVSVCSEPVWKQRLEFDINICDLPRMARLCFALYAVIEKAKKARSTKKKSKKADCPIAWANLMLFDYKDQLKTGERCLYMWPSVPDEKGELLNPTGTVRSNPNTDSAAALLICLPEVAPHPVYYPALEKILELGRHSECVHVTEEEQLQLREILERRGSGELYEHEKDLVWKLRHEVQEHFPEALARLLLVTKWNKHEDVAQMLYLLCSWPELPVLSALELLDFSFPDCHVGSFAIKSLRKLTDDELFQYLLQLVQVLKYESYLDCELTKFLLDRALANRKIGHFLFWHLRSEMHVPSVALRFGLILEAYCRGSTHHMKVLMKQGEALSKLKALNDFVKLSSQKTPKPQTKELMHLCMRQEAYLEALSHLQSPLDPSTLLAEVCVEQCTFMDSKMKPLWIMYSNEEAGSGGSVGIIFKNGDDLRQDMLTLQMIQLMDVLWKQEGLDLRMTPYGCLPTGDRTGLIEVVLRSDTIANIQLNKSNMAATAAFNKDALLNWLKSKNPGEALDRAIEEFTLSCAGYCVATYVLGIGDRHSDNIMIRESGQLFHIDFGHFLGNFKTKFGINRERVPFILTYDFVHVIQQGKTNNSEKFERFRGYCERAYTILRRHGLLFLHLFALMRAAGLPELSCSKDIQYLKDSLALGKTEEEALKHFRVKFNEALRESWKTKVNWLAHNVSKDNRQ
Sequence of PI3Kδ (P27986 whole entry partner): as the sequence (P27986 whole entry partner) above
T2 sequence (P42336 whole entry): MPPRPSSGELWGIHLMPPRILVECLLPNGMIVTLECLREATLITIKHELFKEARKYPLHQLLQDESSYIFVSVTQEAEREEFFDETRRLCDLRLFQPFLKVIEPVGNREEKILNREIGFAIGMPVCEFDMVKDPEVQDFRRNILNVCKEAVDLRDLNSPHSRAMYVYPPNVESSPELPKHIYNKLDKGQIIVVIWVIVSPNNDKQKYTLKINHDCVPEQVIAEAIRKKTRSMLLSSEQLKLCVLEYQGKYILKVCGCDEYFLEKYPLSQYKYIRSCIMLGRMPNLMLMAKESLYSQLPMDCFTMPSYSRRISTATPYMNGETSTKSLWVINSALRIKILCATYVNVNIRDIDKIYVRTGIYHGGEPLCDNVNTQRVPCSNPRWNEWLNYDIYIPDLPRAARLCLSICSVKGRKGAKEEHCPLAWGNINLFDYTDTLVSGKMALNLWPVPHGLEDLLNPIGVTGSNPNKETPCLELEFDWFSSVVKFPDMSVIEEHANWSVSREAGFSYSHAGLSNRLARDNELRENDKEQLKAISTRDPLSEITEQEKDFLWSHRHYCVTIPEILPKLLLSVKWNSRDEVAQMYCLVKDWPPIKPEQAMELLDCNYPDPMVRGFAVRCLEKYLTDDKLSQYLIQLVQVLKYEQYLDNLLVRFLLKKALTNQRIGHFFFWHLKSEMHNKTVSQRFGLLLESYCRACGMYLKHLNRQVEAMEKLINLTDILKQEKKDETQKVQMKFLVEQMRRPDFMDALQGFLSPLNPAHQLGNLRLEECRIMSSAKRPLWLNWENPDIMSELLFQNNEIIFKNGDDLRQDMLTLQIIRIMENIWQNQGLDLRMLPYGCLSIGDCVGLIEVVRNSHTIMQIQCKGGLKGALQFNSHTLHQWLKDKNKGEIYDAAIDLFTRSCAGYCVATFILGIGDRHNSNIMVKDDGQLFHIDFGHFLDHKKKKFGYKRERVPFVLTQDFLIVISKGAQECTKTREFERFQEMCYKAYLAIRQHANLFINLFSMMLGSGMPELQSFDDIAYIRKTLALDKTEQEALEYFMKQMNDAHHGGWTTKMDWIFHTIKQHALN
T2 sequence (P27986 whole entry partner): as the sequence (P27986 whole entry partner) above

In the case of `CC(=O)O.CN1CCN(n2c(CSc3ncnc4[nH]cnc34)nc3ccccc3c2=O)CC1` [Compound D-044, 3-(4-methylpiperazin-1-yl)-2-(9H-purin-6-ylsulfanylmethyl)-3H-quinazolin-4-one, acetate salt], on PI3Kβ, the “Beta/Delta Ratio” value is listed as 15 and the IC50 was determined as 61 µM. For the same compound, the IC50 on PI3Kδ amounted to 4.2 µM. Further, at PI3Kα (20 μM ATP), the “Alpha/Delta Ratio” value was 25 and the IC50 came to 105 µM.
Consider `O=c1c2cc(Br)ccc2nc(CSc2ncnc3[nH]cnc23)n1-c1ccccc1Cl` [Compound D-017, 6-Bromo-3-(2-chlorophenyl)-2-(9H-purin-6-ylsulfanylmethyl)-3H-quinazolin-4-one], for which the melting point – broadly, the temperature of the solid-liquid transition – is 212 to 242 °C (dec.). For the same compound, at PI3Kβ, the “Beta/Delta Ratio” value is >8 and the remaining activity (in general, the signal under treatment as a percentage of the control signal) at 100 µM worked out at 108%. For the same compound, at PI3Kδ, the IC50 was 12 µM. Moreover, on PI3Kα (20 μM ATP), the “Alpha/Delta Ratio” value is >8. Besides, at PI3Kα (setting [1]), the remaining activity at 100 µM turned out to be 89%.
In the case of `O=c1c2ccc([N+](=O)[O-])cc2nc(CSc2ncnc3[nH]cnc23)n1-c1ccccc1Cl` [Compound D-023, 3-(2-Chlorophenyl)-7-nitro-2-(9H-purin-6-ylsulfanylmethyl)-3H-quinazolin-4-one], the melting point is 218 to 218.3 °C (dec.). Moreover, on PI3Kβ, the “Beta/Delta Ratio” value is >3.9 and the remaining activity at 100 µM worked out at 91%. The IC50 on PI3Kδ was 26 µM. Further, at PI3Kα (20 μM ATP), the “Alpha/Delta Ratio” value is listed as >4. In addition, the remaining activity at 100 µM on PI3Kα (setting [1]) came out at 83%.
Consider `COc1ccccc1-n1c(Cn2cnc3c(N)ncnc32)nc2cccc(Cl)c2c1=O` [Compound D-033, 2-(6-Aminopurin-9-ylmethyl)-5-chloro-3-(2-methoxyphenyl)-3H-quinazolin-4-one], for which the melting point lay within 257 to 257.1 °C.
For `COc1cc2nc(Cn3cnc4c(N)ncnc43)n(-c3ccccc3Cl)c(=O)c2cc1OC` [Compound D-001, 2-(6-Aminopurin-9-ylmethyl)-3-(2-chlorophenyl)-6,7-dimethoxy-3H-quinazolin-4-one], the melting point is 281.5 to 282.7 °C (dec.). Also, at PI3Kβ, the “Beta/Delta Ratio” value amounted to 0.66 and the IC50 was found to be 45 µM. Further, on PI3Kδ, the IC50 was 68 µM. Further, on PI3Kα (20 μM ATP), the “Alpha/Delta Ratio” value is recorded as >1.5. The remaining activity at 100 µM at PI3Kα (setting [1]) was determined as 83%.
For `O=c1c2ccccc2nc(CSc2ncnc3[nH]cnc23)n1-c1ccncc1` [Compound D-042, 2-(9H-purin-6-ylsulfanylmethyl)-3-pyridin-4-yl-3H-quinazolin-4-one], on PI3Kβ, the “Beta/Delta Ratio” value is reported as 8. The IC50 on PI3Kβ came to 25 µM; at PI3Kδ, 3 µM. The “Alpha/Delta Ratio” value at PI3Kα (20 μM ATP) is on record as >32. The remaining activity at 100 µM at PI3Kα (setting [1]) stood at 70%.
On to `O=c1c2ccccc2nc(CSc2ncnc3[nH]cnc23)n1-c1cccc(Cl)c1` [Compound D-041, 3-(3-chlorophenyl)-2-(9H-purin-6-ylsulfanylmethyl)-3H-quinazolin-4-one], for which, on PI3Kβ, the “Beta/Delta Ratio” value is given as >25 and the remaining activity at 100 µM was determined as 65%. In addition, the IC50 at PI3Kδ turned out to be 4 µM. In addition, the “Alpha/Delta Ratio” value on PI3Kα (20 μM ATP) was >25. For the same compound, at PI3Kα (setting [1]), the remaining activity at 100 µM is 67%.
On to `O=c1c2cc(Cl)ccc2nc(CSc2ncnc3[nH]cnc23)n1-c1ccccc1Cl` [Compound D-020, 6-Chloro-3-(2-chlorophenyl)-2-(9H-purin-6-ylsulfanylmethyl)-3H-quinazolin-4-one], for which the melting point was 237.1 to 238.2 °C (dec.). Further, at PI3Kβ, the “Beta/Delta Ratio” value is given as >53 and the remaining activity at 100 µM turned out to be 69%. Besides, the IC50 at PI3Kδ was found to be 1.9 µM. The “Alpha/Delta Ratio” value on PI3Kα (20 μM ATP) is listed as >53. The remaining activity at 100 µM at PI3Kα (setting [1]) was determined as 69%.
For `O=c1c2ccccc2nc(CSc2ncnc3[nH]cnc23)n1-c1ccc(Cl)cc1` [Compound D-052, 3-(4-chlorophenyl)-2-(9H-purin-6-ylsulfanylmethyl)-3H-quinazolin-4-one], on PI3Kβ, the “Beta/Delta Ratio” value was >13 and the remaining activity at 100 µM stood at 69%. Moreover, on PI3Kδ, the IC50 is 8 µM. Besides, on PI3Kα (20 μM ATP), the “Alpha/Delta Ratio” value is 0.09 and the IC50 was determined as 0.7 µM.
For `Nc1ncnc2c1ncn2Cc1nc2ccc(Cl)cc2c(=O)n1-c1ccccc1Cl` [Compound D-004, 2-(6-Aminopurin-9-ylmethyl)-6-chloro-3-(2-chlorophenyl)-3H-quinazolin-4-one], the melting point was 294.5 to 294.8 °C (dec.). In addition, at PI3Kβ, the “Beta/Delta Ratio” value is listed as >1.6 and the remaining activity at 100 µM came out at 89%. Further, at PI3Kδ, the IC50 is 64 µM. In addition, at PI3Kα (20 μM ATP), the “Alpha/Delta Ratio” value was >2. For the same compound, at PI3Kα (setting [1]), the remaining activity at 100 µM turned out to be 93%.
Turning to `Nc1ncnc2c1ncn2Cc1nc2ccc(Br)cc2c(=O)n1-c1ccccc1Cl` [Compound D-002, 2-(6-Aminopurin-o-ylmethyl)-6-bromo-3-(2-chlorophenyl)-3H-quinazolin-4-one], the melting point was 284.2 to 284.7 °C (dec.). On PI3Kβ, the “Beta/Delta Ratio” value was >2.3 and the remaining activity at 100 µM amounted to 78%. The IC50 on PI3Kδ is 44 µM. For the same compound, at PI3Kα (20 μM ATP), the “Alpha/Delta Ratio” value was >2.3. At PI3Kα (setting [1]), the remaining activity at 100 µM amounted to 88%.
For the compound `COc1ccccc1-n1c(CSc2ncnc3[nH]cnc23)nc2ccccc2c1=O` [Compound D-046, 3-(2-methoxyphenyl)-2-(9H-purin-6-ylsulfanylmethyl)-3H-quinazolin-4-one], the “Beta/Delta Ratio” value at PI3Kβ is given as 11. In addition, the “Alpha IC50 column: percent activity remaining at 100 μM” value on PI3Kα (20 μM ATP, 100 μM compound did not inhibit by at least 50%, 100 µM) is given as 64%. Besides, on PI3Kα (20 μM ATP), the “Alpha/Delta Ratio” value is on record as >11.
For `CCCCn1c(Cn2cnc3c(N)ncnc32)nc2ccccc2c1=O` [Compound D-050, 2-(6-aminopurin-9-ylmethyl)-3-butyl-3H-quinazolin-4-one], on PI3Kβ, the “Beta/Delta Ratio” value was 26 and the IC50 worked out at 41 µM. Moreover, the IC50 on PI3Kδ was 1.6 µM. In addition, the “Alpha/Delta Ratio” value at PI3Kα (20 μM ATP) is given as >63. Further, on PI3Kα (setting [1]), the remaining activity at 100 µM was determined as 99%.
`COc1cccc(-n2c(CSc3ncnc4[nH]cnc34)nc3ccccc3c2=O)c1` [Compound D-040, 3-(3-methoxyphenyl)-2-(9H-purin-6-ylsulfanylmethyl)-3H-quinazolin-4-one]: at PI3Kβ, the “Beta/Delta Ratio” value was >61 and the remaining activity at 100 µM came out at 64%. At PI3Kδ, the IC50 stood at 1.7 µM. Also, the “Alpha/Delta Ratio” value on PI3Kα (20 μM ATP) was >61. Also, at PI3Kα (setting [1]), the remaining activity at 100 µM amounted to 77%.
Take `COc1cc2nc(CSc3ncnc4[nH]cnc34)n(-c3ccccc3Cl)c(=O)c2cc1OC` [Compound D-016, 3-(2-Chlorophenyl)-6,7-dimethoxy-2-(9H-purin-6-ylsulfanylmethyl)-3H-quinazolin-4-one]: the melting point is 160 to 180 °C (dec.). For the same compound, on PI3Kβ, the “Beta/Delta Ratio” value is recorded as >3 and the remaining activity at 100 µM was found to be 81%. For the same compound, on PI3Kδ, the IC50 was found to be 40 µM. Besides, the “Alpha/Delta Ratio” value at PI3Kα (20 μM ATP) is listed as >2.5. For the same compound, at PI3Kα (setting [1]), the remaining activity at 100 µM is 91%.
Take `Cc1ccccc1-n1c(Cn2cnc3c(N)ncnc32)nc2cccc(Cl)c2c1=O`: the melting point was in the range of 262 to 266.5 °C.
Take `CC(=O)O.Nc1ncnc2c1ncn2Cc1nc2ccccc2c(=O)n1N1CCOCC1` [Compound D-051, 2-(6-aminopurin-9-ylmethyl)-3-morpholin-4-yl-3H-quinazolin-4-one, acetate salt]: on PI3Kβ, the “Beta/Delta Ratio” value is >31 and the remaining activity at 100 µM came out at 57%. On PI3Kδ, the IC50 was 3.3 µM. In addition, the “Alpha/Delta Ratio” value on PI3Kα (20 μM ATP) is >31. For the same compound, on PI3Kα (read-out: percent activity remaining at 100 μM), the remaining activity at 100 µM was found to be 89%.
